# Data reported in patent US20040171680A1, “Treating Syndrome X with substituted tetralins and indanes” (priority 2002, published 2004).
# pEC50: −log10 of the molar value. Read-outs that look alike come from different tables or passages of the source.
# Key:
# PPARα = target: T1, PPARα (Rattus norvegicus, UniProt P37230); assay: HD bDNA Assay (HD gene induction); assay type: cell-based; details: in section F; target not named there, values match the PPARα column; read-out: EC50
# T1 construct: H4IIE rat hepatoma cell line was obtained from ATCC; host or cells: H4IIE rat hepatoma cells
# T1 sequence (P37230 1-468): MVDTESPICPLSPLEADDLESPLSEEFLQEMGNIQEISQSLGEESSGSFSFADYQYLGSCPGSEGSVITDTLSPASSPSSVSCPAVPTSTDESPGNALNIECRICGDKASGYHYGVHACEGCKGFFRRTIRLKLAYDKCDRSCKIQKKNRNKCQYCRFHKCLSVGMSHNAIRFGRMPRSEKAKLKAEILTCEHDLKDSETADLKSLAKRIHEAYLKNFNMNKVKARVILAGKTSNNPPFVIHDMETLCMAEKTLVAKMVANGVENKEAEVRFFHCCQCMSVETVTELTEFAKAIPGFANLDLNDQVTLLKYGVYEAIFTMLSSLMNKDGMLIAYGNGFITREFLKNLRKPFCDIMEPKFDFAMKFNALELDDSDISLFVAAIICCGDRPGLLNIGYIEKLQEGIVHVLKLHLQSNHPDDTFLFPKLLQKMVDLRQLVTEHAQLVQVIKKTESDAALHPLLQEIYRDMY
# Outline: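 H4IIE rat hepatoma cells (~100,000/well) treated 24 hours at 37° C in low-serum medium (5% charcoal/dextran-treated calf serum) with compounds. HD mRNA quantified by branched DNA luminescence assay; EC50's from sigmoidal non-linear regression.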
# PPARγ = target: T2, PPARγ (Homo sapiens, UniProt P37231); assay: aP2 Assay for PPAR gamma Agonists (bDNA aP2 mRNA in preadipocytes); assay type: cell-based; details: fold induction; PPARγ standard: FI = 70.3
# T2 construct: Following the challenge of the preadipocytes, cells may be lysed with lysis buffer; endogenous in cells; host or cells: preadipocytes
# T2 sequence (P37231 1-505): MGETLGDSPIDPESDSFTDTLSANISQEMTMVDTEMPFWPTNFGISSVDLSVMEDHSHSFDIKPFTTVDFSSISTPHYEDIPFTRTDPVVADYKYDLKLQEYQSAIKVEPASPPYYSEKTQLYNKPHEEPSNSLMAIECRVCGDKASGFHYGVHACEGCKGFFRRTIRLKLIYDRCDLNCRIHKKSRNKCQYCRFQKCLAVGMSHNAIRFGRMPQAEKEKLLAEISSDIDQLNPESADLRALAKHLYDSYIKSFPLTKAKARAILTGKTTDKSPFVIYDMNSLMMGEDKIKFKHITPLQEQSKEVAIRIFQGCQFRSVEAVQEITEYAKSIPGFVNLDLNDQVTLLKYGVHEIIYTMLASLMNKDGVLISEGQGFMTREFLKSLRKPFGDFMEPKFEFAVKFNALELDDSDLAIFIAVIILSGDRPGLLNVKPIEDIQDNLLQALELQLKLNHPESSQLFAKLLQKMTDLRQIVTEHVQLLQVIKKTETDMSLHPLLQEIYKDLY
# Text: aP2 Assay for PPAR gamma Agonists
# The procedure is described in detail in Burris et al., Molecular Endocrinology, 1999, 13:410, which is hereby incorporated by reference in its entirety, and aP2 assay results of agonist intrinsic activity may be presented as fold increase over vehicle in induction of aP2 mRNA production.
# Twenty-four hours after the initial seeding of the 96-well plates by hand (around 20,000/well), the differentiation assay may be initiated. Medium may be removed and replaced with […] of differentiation medium containing vehicle (DMSO) or test compounds. Cells may be returned to incubator for 24 hours culture. At the termination of the challenge, medium may be removed and 100 ul of lysis buffer may be added to initiate the bDNA aP2 mRNA assay. The branched DNA assay may be performed according to the manufacturer's protocol (Bayer Diagnostics; Emeryville, Calif.). Result may be expressed as the fold increase of aP2 mRNA production activated over vehicle controls. EC50's and Emax may be determined by non-linear regression with a sigmoidal fit curve.
# Following the challenge of the preadipocytes, cells may be lysed with lysis buffer (Bayer Diagnostics) containing the aP2 oligonucleotides. After a 15 minute incubation at 53° C. or 30 minutes at 37° C. incubator, 70 ul of the lysis buffer from each well may be added to a corresponding capture well (preincubated with 70 ul of blocking buffer (Bayer Diagnostics)). The capture plate may be incubated overnight at 53° C. in a plate incubator (Bayer Diagnostics). After this incubation, the bDNA and labeled probes may be annealed as directed by the manufacturer. Following a 30-minute incubation with the luminescent alkaline phosphatase substrate, dioxitane, the luminescence may be quantitated in a Dynex MLX microtiter plate luminometer. Oligonucleotide probes designed to anneal to the aP2 mRNA and function in the bDNA mRNA detection system are designed with ProbeDesigner software (Bayer Diagnostics). This software package analyzes a target sequence of interest with a series of algorithms in order to determine which regions of the sequence can perform as locations for capture, label, or spacer probe annealing. The sequences of the oligonucleotides are as follows: […]
# db/db mice = assay: Oral dosing in female db/db mice; assay type: in vivo; details: Mus musculus, 1.0 mpk, % change compared to vehicle
# Description: The compound was prepared as suspensions in 0.5% hydroxypropylmethylcellulose (Dow Chemical, Midland, Mich.). The dosing volume was 10 mL/kg of body weight. […] Body weight was measured in the mornings on Day 1, prior to dosing, and on Day 12 before bleeding. 18-24 hours after the final dose for each group, the mice were anesthetized with CO2/O2 (70:30) and bled by retro-orbital sinus puncture into micro-tubes containing clog activator and then put in ice. The serum samples were prepared by centrifugation. Serum glucose and triglycerides were determined by using COBAS Mira Plus blood chemistry analyzer (Roche Diagnostics, N.J.). Serum insulin was measured by using ALPCO insulin ELISA kit.
# Statistical analysis was performed using the program Prism (Graphpad, Monrovia, Calif.) and performing one-way ANOVA with a Dunnet's multiple comparison test.
# PPARδ = target: T3, PPARδ (Homo sapiens, UniProt Q03181); assay: Transfection Assay for PPARδ Receptors (PPAR-Gal4 / Gal4-Luciferase reporter in HEK293 cells); assay type: cell-based; details: fold induction; PPARδ standard: FI = 36.1
# T3 construct: a Gal4-Luciferase reporter is co-transfected
# T3 sequence (Q03181 171-441 limits assumed): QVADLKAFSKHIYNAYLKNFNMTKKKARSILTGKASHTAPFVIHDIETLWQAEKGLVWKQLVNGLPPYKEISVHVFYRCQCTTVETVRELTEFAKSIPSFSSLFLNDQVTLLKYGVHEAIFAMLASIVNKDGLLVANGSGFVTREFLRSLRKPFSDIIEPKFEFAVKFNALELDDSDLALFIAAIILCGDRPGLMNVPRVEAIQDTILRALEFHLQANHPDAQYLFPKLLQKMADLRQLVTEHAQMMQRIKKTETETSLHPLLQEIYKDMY
# Outline: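 HEK293 cells co-transfected with PPAR-Gal4 receptor and Gal4-luciferase reporter, then moved into 5% charcoal-treated FBS medium. Compounds applied for 24 h at 37 °C, 5% CO2; luciferase activity read with Steady-Glo.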
# [1] = Comparison of (S) and (R) isomer activity (test not stated); details: chiral center on C-2 of the indane ring
# [2] = 120 h, 5 day oral dosing, read-out: Δ BW
# [3] = 120 h, 5 day oral dosing, read-out: Δ Plasma Glucose
# [4] = 120 h, 5 day oral dosing, read-out: Δ Plasma Insulin
# [5] = 120 h, 5 day oral dosing, read-out: Δ Plasma TG
SMILES,pEC50 (PPARα),PPARγ FI (PPARγ),PPARδ FI (PPARδ),change in vivo at 1 mg/kg (db/db mice; [2]) [%],change in vivo at 1 mg/kg (db/db mice; [3]) [%],change in vivo at 1 mg/kg (db/db mice; [4]) [%],change in vivo at 1 mg/kg (db/db mice; [5]) [%],activity of the (S) isomer compared with the (R) isomer [1],"change in vivo at 1 mg/kg (db/db mice; 264 h, 11 day oral dosing, read-out: Δ BW) [%]","change in vivo at 1 mg/kg (db/db mice; 264 h, 11 day oral dosing, read-out: Δ Plasma Glucose) [%]","change in vivo at 1 mg/kg (db/db mice; 264 h, 11 day oral dosing, read-out: Δ Plasma Insulin) [%]","change in vivo at 1 mg/kg (db/db mice; 264 h, 11 day oral dosing, read-out: Δ Plasma TG) [%]"
"CCN(C(=O)Nc1ccc(OC(F)(F)F)cc1)[C@H]1Cc2ccc(SC(C)(C)C(=O)O)cc2C1 [Example 3, (S)-2-{2-[1-Ethyl-3-(4-trifluoromethoxyphenyl)ureido]indan-5-ylsulfanyl}-2-methylpropionic acid]",,,,,-66,-69,-66,the (S) isomer is more active than the (R) isomer,-136,,,
"CCN(C(=O)Nc1ccc(N(C)C)cc1)C1Cc2ccc(SC(C)(C)C(=O)O)cc2C1 (stereo not drawn) [Example 7, 2-{2-[3-(4-Dimethylaminophenyl)-1-ethylureido]indan-5-ylsulfanyl}-2-methylpropionic acid]",7.12,0,0.8,-27,-44,-40,-63,,,,,
"CCCCCN(C(=O)Nc1ccc(OC(F)(F)F)cc1)C1Cc2ccc(SC(C)(C)C(=O)O)cc2C1 (stereo not drawn) [Example 8, 2-Methyl-2-{2-[1-pentyl-3-(4-trifluoromethoxyphenyl)ureido]indan-5-ylsulfanyl}-2-methylpropionic acid]",7.14,1.9,5.9,-2,-28,-38,-27,,,,,

# The remaining molecules from weak to strong by pEC50 (PPARα), led by results:
pEC50 (PPARα),PPARγ FI (PPARγ),PPARδ FI (PPARδ),SMILES,change in vivo at 1 mg/kg (db/db mice; [2]) [%],change in vivo at 1 mg/kg (db/db mice; [3]) [%],change in vivo at 1 mg/kg (db/db mice; [4]) [%],change in vivo at 1 mg/kg (db/db mice; [5]) [%],activity of the (S) isomer compared with the (R) isomer [1],"change in vivo at 1 mg/kg (db/db mice; 264 h, 11 day oral dosing, read-out: Δ BW) [%]","change in vivo at 1 mg/kg (db/db mice; 264 h, 11 day oral dosing, read-out: Δ Plasma Glucose) [%]","change in vivo at 1 mg/kg (db/db mice; 264 h, 11 day oral dosing, read-out: Δ Plasma Insulin) [%]","change in vivo at 1 mg/kg (db/db mice; 264 h, 11 day oral dosing, read-out: Δ Plasma TG) [%]"
7.25,1.9,3.6,"CCN(C(=O)Nc1ccc(C(C)C)cc1)C1Cc2ccc(SC(C)(C)C(=O)O)cc2C1 (stereo not drawn) [Example 6, 2-{2-[1-Ethyl-3-(4-isopropylphenyl)ureido]indan-5-ylsulfanyl}-2-methylpropionic acid]",-54,-49,-19,-50,,,,,
7.57,0.24,4.2,"CCN(C(=O)Nc1ccc(OC(F)(F)F)cc1)C1Cc2ccc(SC(C)(C)C(=O)O)cc2C1 (stereo not drawn) [Example 2, 2-{2-[1-Ethyl-3-(4-trifluoromethoxyphenyl)ureido]indan-5-ylsulfanyl}-2-methylpropionic acid]",-59,,,,,,-60,-53,-56
